Experimental data: ChEMBL document CHEMBL1139762, “Novel substituted tetrahydrotriazaacenaphthylene derivatives as potent CRF1 receptor antagonists” (Bioorg Med Chem Lett, 2007)

Key:
[1] = target: T1, Corticotropin-releasing factor receptor 1 (Homo sapiens, UniProt P34998); assay: Displacement of [125I]CRF from human recombinant CRF1 receptor expressed in CHO cell membrane; assay type: cell membranes
T1 sequence (P34998 whole entry): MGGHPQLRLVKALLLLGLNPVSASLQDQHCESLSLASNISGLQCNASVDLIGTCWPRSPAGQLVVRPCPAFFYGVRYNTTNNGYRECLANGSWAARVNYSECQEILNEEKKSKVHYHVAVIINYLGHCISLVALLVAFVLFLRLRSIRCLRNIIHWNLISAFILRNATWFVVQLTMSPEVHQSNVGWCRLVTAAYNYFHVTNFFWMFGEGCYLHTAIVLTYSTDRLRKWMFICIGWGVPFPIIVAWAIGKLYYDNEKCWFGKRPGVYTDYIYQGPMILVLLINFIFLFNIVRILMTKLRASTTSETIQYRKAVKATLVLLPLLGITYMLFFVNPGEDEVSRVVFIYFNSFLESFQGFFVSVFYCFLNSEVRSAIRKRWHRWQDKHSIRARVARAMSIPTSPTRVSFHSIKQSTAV

[2] = Plasma clearance in Sprague-Dawley rat at 1 mg/kg, po and 0.4 mg/kg, iv; assay type: ADME, organism-based
[3] = Oral bioavailability in Sprague-Dawley rat at 1 mg/kg; assay type: ADME, organism-based; conditions: in vivo
[4] = Volume of distribution at steady state in Sprague-Dawley rat at 1 mg/kg, po and 0.4 mg/kg, iv; assay type: ADME, organism-based; conditions: in vivo, read-out: Vdss
[5] = Half life in Sprague-Dawley rat at 1 mg/kg, po and 0.4 mg/kg, iv; assay type: ADME, organism-based; conditions: in vivo
[6] = AUC in Sprague-Dawley rat at 1 mg/kg, po and 0.4 mg/kg, iv; assay type: ADME, organism-based; conditions: plasma

SMILES	IC50 [1]	clearance [2]	bioavailability [3]	Vd [4]	half-life [5]	AUC [6]
CCC(CC)n1cc2c3c(nc(C)nc31)N(c1ccc(C(F)(F)F)cc1C(F)(F)F)CC2	25.1 nM	–	–	–	–	–
CCCC(CCC)n1cc2c3c(nc(C)cc31)N(c1ccc(C(F)(F)F)cc1C(F)(F)F)CC2	100 nM	8 mL/min/kg	71%	2.5 L/kg	5.3 h	1480 ng·h/mL
CCCC(CCC)n1cc2c3c(nc(C)cc31)N(c1ccc(OC)cc1C)CC2	126 nM	–	–	–	–	–
CCCC(CCC)n1cc2c3c(nc(C)cc31)N(c1ccc(OC)c(F)c1)CC2	39.8 nM	47 mL/min/kg	37%	24 L/kg	8.6 h	131 ng·h/mL
CCC(COC)n1cc2c3c(nc(C)cc31)N(c1ccc(C#N)cc1C)CC2 (stereo not drawn)	39.8 nM	–	–	–	–	–
CCC(CC)n1cc2c3c(nc(C)cc31)N(c1ccc(OC(F)(F)F)cc1C)CC2	79.4 nM	–	–	–	–	–
CCCC(CCC)n1cc2c3c(nc(C)nc31)N(c1ccc(C#N)cc1C)CC2	50.1 nM	–	–	–	–	–
CCC(CC)n1cc2c3c(nc(C)cc31)N(c1ccc(OC)cc1C)CC2	12.6 nM	–	–	–	–	–
CCC(CC)n1cc2c3c(nc(C)cc31)N(c1ccc(C(F)(F)F)cc1C(F)(F)F)CC2	126 nM	21 mL/min/kg	28%	6.8 L/kg	7.6 h	222 ng·h/mL
CCC(CC)n1cc2c3c(nc(C)cc31)N(c1ccc(OC)c(F)c1)CC2	50.1 nM	–	–	–	–	–
CCCC(CCC)n1cc2c3c(nc(C)nc31)N(c1ccc(C(F)(F)F)cc1C(F)(F)F)CC2	15.8 nM	–	–	–	–	–
CCCC(CCC)N1CCC2CN(c3ccc(Cl)cc3Cl)c3nc(C)nc1c32 (stereo not drawn)	31.6 nM	–	–	–	–	–
COCC(COC)Nc1nc(C)nc2c(-c3ccc(Cl)cc3Cl)c(C)nn12	39.8 nM	–	–	–	–	–
CCCC(CCC)n1cc2c3c(nc(C)cc31)N(c1ccc(C#N)cc1C)CC2	3.98 nM	54 mL/min/kg	< 5%	17 L/kg	6.7 h	< 15 ng·h/mL
CCC(CC)n1cc2c3c(nc(C)cc31)N(c1ccc(C#N)cc1C)CC2	12.6 nM	–	–	–	–	–
CCC(CC)n1cc2c3c(nc(C)cc31)N(c1ccc(OC)cc1)CC2	63.1 nM	–	–	–	–	–
CCCCN(CC)c1nc(C)nc2c1c(C)cn2-c1c(C)cc(C)cc1C [CP-154526]	15.8 nM	–	–	–	–	–
CCC(COC)n1cc2c3c(nc(C)cc31)N(c1ccc(OC)cc1C)CC2 (stereo not drawn)	158 nM	–	–	–	–	–
